How the values were obtained:
[1] = system: P. aeruginosa PA14 exponentially-growing cells; experiment: Killing at one MIC in PBS, NPIMA compared with cisplatin; assay type: cell-based, Pseudomonas aeruginosa
Description: FIG. 7. NPIMA compared width cisplatin for killing Pseudomonas aeruginosa, Escherichia coli, and Staphylococcus aureus. Survival of exponentially-growing cells of P. aeruginosa PA14 (a), E. coli (b), and S. aureus (c) treated with one MIC of NPIMA (♦) and cisplatin (●) for 3 hr in PBS. DMSO (▴) and NaClO4 (*) were used as a negative controls. MIC, minimum inhibitory concentration; NPIMA, 5-nitro-3-phenyl-1H-indol-2-yl-methylamine hydrochloride.
For bacterial viability, cells were washed twice with 0.85% NaCl, resuspended in 1×PBS, and cell counts were determined via the drop assay (Donegan, Matyac, Seidler, & Porteous, 1991). For human cell viability, pre-cultured human cancer HT-29 cells were dispensed in 98 μl in 96-well plates with approximately 5,000 cells/well. NPIMA was added (2 μl) to produce concentrations of 5, 10, 100, and 200 μM. For controls, Triton X-100 (positive control) and DMSO (negative solvent control), were used, and the medium was used for background. Plates were incubated in a humidified incubator (37° C., 5% CO2) for 24 hr. Cell viability was determined via a cell counting kit (CCK-8 Kit, ab228554; Abcam), and cytotoxicity was determined via the lactate dehydrogenase (LDH) assay (LDH Assay Kit, MK401; Takara).

E. coli K-12 BW25113 = conditions: from Chowdhury, Wood, et al., 2016; cited from earlier work
S. aureus ATCC29213 = conditions: from Chowdhury, Wood, et al., 2016; cited from earlier work
P. aeruginosa PA14 = conditions: from Chowdhury, Wood, et al., 2016; cited from earlier work

N.N.[Cl][Pt][Cl] [cisplatin]
time to eradicate P. aeruginosa cells [1]: 1 h
MIC (E. coli K-12 BW25113): 300 µM
MIC (S. aureus ATCC29213): 1000 µM
MIC (P. aeruginosa PA14): 150 µM

Source: US12472185B2, “Methods for killing antibiotic tolerant bacteria” (THE PENN STATE RESEARCH FOUNDATION, priority 2020, dated 2025)
